{"source": "patent US9694016B2", "about": "(Novartis AG, priority 2013, dated 2017)", "molecular_target": "b-Raf (V600E) (Homo sapiens (Human), UniProt P15056, V600E)", "sequence (P15056 whole entry V600E)": "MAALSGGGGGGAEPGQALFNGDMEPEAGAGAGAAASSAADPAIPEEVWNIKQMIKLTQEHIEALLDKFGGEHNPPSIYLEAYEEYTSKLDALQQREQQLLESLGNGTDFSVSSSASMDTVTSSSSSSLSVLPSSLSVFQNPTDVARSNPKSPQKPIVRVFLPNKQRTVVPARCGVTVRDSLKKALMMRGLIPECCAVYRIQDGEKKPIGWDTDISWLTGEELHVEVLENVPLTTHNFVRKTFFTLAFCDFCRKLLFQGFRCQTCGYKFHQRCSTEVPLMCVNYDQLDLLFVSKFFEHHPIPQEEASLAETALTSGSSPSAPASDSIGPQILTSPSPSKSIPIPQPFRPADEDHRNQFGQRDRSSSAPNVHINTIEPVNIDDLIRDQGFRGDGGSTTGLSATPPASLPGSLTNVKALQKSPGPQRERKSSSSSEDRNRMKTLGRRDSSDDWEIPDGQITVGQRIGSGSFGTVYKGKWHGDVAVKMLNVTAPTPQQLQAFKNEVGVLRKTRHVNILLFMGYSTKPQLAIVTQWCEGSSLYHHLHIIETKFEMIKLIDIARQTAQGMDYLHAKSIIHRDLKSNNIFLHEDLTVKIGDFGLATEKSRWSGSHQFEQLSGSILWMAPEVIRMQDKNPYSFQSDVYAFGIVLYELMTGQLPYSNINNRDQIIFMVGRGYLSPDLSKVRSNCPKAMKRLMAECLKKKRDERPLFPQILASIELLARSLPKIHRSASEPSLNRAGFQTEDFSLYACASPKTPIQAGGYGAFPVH", "settings": "read-out: b-Raf IC-50", "key": {"[1]": {"settings": "AlphaScreen, 60 min pre-incubation, 3 hours reaction"}, "[2]": {"settings": "AlphaScreen, 60 min pre-incubation, reaction 3 hours at room temperature"}, "[3]": {"settings": "Table 2, AlphaScreen, 3 hours reaction"}}, "note": "Where two headings read alike, the source gives them in different places."}
{"smiles": "CCC(F)(F)c1cc(C(=O)Nc2cnc(C)c(-c3cncc(N4CCOCC4)n3)c2)ccn1", "note": "[Example 537, 2-(1,1-difluoropropyl)-N-(6-methyl-5-(6-morpholinopyrazin-2-yl)pyridin-3-yl)isonicotinamide]", "values": [{"measurement": "IC50", "setting": "[1]", "value": 4.4, "unit": "nM"}]}
{"smiles": "Cc1ncc(NC(=O)c2cc(C(C)(C)C#N)ccn2)cc1-c1cnc(OC2CCOCC2)c(N2CCOCC2)c1", "note": "[Example 943, 4-(2-cyanopropan-2-yl)-N-(2-methyl-5′-morpholino-6′-((tetrahydro-2H-pyran-4-yl)oxy)-[3,3′-bipyridin]-5-yl)picolinamide]", "values": [{"measurement": "IC50", "setting": "[2]", "value": 9.51, "unit": "nM"}]}
{"smiles": "Cc1ncc(NC(=O)c2cccc(C(F)(F)F)c2)cc1-c1cnc(C(C)(C)C#N)c(N2CCOCC2)c1", "note": "[Example 326, N-(6′-(2-cyanopropan-2-yl)-2-methyl-5′-morpholino-[3,3′-bipyridin]-5-yl)-3-(trifluoromethyl)benzamide]", "values": [{"measurement": "IC50", "setting": "[3]", "value": 3.7, "unit": "nM"}]}
{"smiles": "Cc1ccc(NC(=O)c2cnnc(C(C)(C)C#N)c2)cc1-c1cc(NCCO)nc(N2CCOCC2)c1F", "note": "[Example 1012, 6-(2-cyanopropan-2-yl)-N-(3-(3-fluoro-6-((2-hydroxyethyl)amino)-2-morpholinopyridin-4-yl)-4-methylphenyl)pyridazine-4-carboxamide]", "values": [{"measurement": "IC50", "setting": "[2]", "value": 70.6, "unit": "nM"}]}
{"smiles": "COc1ncc(-c2cc(NC(=O)c3ccnc(C(F)(F)F)c3)cnc2C)cc1N1CCOCC1", "note": "[Example 324, N-(6′-methoxy-2-methyl-5′-morpholino-[3,3′-bipyridin]-5-yl)-2-(trifluoromethyl)isonicotinamide]", "values": [{"measurement": "IC50", "setting": "[3]", "value": 7.4, "unit": "nM"}]}
{"smiles": "Cc1ncc(NC(=O)c2ccnc(C(C)(F)F)c2)cc1-c1cnc(OC2CCOCC2)c(N2CCOCC2)c1", "note": "[Example 938, 2-(1,1-difluoroethyl)-N-(2-methyl-5′-morpholino-6′-((tetrahydro-2H-pyran-4-yl)oxy)-[3,3′-bipyridin]-5-yl)isonicotinamide]", "values": [{"measurement": "IC50", "setting": "[2]", "value": 2.36, "unit": "nM"}]}
{"smiles": "CCNc1nc(-c2cc(NC(=O)c3ccnc(C(C)C)c3)ccc2C)cc(N2CCOCC2)n1", "note": "[Example 700, N-(3-(2-(ethylamino)-6-morpholinopyrimidin-4-yl)-4-methylphenyl)-2-isopropylisonicotinamide]", "values": [{"measurement": "IC50", "setting": "[1]", "value": 1.2, "unit": "nM"}]}
{"smiles": "Cc1ccc(NC(=O)c2cccc(C(F)(F)F)c2)cc1-c1cc(N2CCOCC2)nc(NCCO)n1", "note": "[Example 31, N-(3-(2-((2-hydroxyethyl)amino)-6-morpholinopyrimidin-4-yl)-4-methylphenyl)-3-(trifluoromethyl)benzamide]", "values": [{"measurement": "IC50", "setting": "[3]", "value": 0.7, "unit": "nM"}]}
{"smiles": "Cc1ccc(NC(=O)c2ccnc(C(F)(F)F)c2)cc1-c1cc(N2CCOCC2)nc(N2CCC(O)C2)c1", "note": "(stereo not drawn) [Example 1130, N-(3-(2-(3-hydroxypyrrolidin-1-yl)-6-morpholinopyridin-4-yl)-4-methylphenyl)-2-(trifluoromethyl)isonicotinamide]", "values": [{"measurement": "IC50", "setting": "[2]", "value": 2.24, "unit": "nM"}]}
{"smiles": "CCOc1cc(-c2cc(NC(=O)c3ccnc(C(F)(F)F)c3)ccc2C)cc(N2CCOCC2)n1", "note": "[Example 1133, N-(3-(2-ethoxy-6-morpholinopyridin-4-yl)-4-methylphenyl)-2-(trifluoromethyl)isonicotinamide]", "values": [{"measurement": "IC50", "setting": "[2]", "value": 1.29, "unit": "nM"}]}
{"smiles": "CCOc1nnc(-c2cc(NC(=O)c3cccc(C(F)F)c3)ccc2C)cc1N1CCOCC1", "note": "[Example 561, 3-(difluoromethyl)-N-(3-(6-ethoxy-5-morpholinopyridazin-3-yl)-4-methylphenyl)benzamide]", "values": [{"measurement": "IC50", "setting": "[1]", "value": 0.3, "unit": "nM"}]}
{"smiles": "Cc1ncc(NC(=O)c2ccnc(C(C)C)c2)cc1-c1cnc(N(C)C)c(N2CCOCC2)c1", "note": "[Example 308, N-(6′-(dimethylamino)-2-methyl-5′-morpholino-[3,3′-bipyridin]-5-yl)-2-isopropylisonicotinamide]", "values": [{"measurement": "IC50", "setting": "[3]", "value": 0.8, "unit": "nM"}]}
{"smiles": "COc1ncc(-c2cc(NC(=O)c3ccnc(C(C)(C)C#N)c3)cnc2Cl)cc1N1CCOCC1", "note": "[Example 264, N-(2-chloro-6′-methoxy-5′-morpholino-[3,3′-bipyridin]-5-yl)-2-(2-cyanopropan-2-yl)isonicotinamide]", "values": [{"measurement": "IC50", "setting": "[3]", "value": 8.6, "unit": "nM"}]}
{"smiles": "Cc1ccc(NC(=O)c2cccc(C(F)(F)F)c2)cc1-c1cc(N2CCOCC2)nc(N2CCOCC2)n1", "note": "[Example 10, N-(3-(2,6-dimorpholinopyrimidin-4-yl)-4-methylphenyl)-3-(trifluoromethyl)benzamide]", "values": [{"measurement": "IC50", "value": 0.3, "unit": "nM"}]}
{"smiles": "Cc1ccc(NC(=O)c2cnnc(C(C)(C)F)c2)cc1-c1cc(N2CCOCC2)c(=O)n(C)c1", "note": "[Example 363, 6-(2-fluoropropan-2-yl)-N-(4-methyl-3-(1-methyl-5-morpholino-6-oxo-1,6-dihydropyridin-3-yl)phenyl)pyridazine-4-carboxamide]", "values": [{"measurement": "IC50", "setting": "[3]", "value": 3.8, "unit": "nM"}]}
{"smiles": "Cc1ncc(NC(=O)c2cnnc(C(C)(C)C#N)c2)cc1-c1cnc(Cl)c(N2CCOCC2)c1", "note": "[Example 293, N-(6′-chloro-2-methyl-5′-morpholino-[3,3′-bipyridin]-5-yl)-6-(2-cyanopropan-2-yl)pyridazine-4-carboxamide]", "values": [{"measurement": "IC50", "setting": "[3]", "value": 32.3, "unit": "nM"}]}
{"smiles": "CCOc1ncc(-c2cc(NC(=O)c3ccnc(S(C)(=O)=O)c3)ccc2C)cc1N1CCOCC1", "note": "[Example 232, N-(3-(6-ethoxy-5-morpholinopyridin-3-yl)-4-methylphenyl)-2-(methylsulfonyl)isonicotinamide]", "values": [{"measurement": "IC50", "setting": "[3]", "value": 0.8, "unit": "nM"}]}
{"smiles": "Cc1ccc(NC(=O)c2cnnc(C3CC3)c2)cc1-c1cc(N2CCOCC2)nc(N2CC(C)(O)C2)c1", "note": "[Example 1076, 6-cyclopropyl-N-(3-(2-(3-hydroxy-3-methylazetidin-1-yl)-6-morpholinopyridin-4-yl)-4-methylphenyl)pyridazine-4-carboxamide]", "values": [{"measurement": "IC50", "setting": "[2]", "value": 2.31, "unit": "nM"}]}
{"smiles": "Cc1ncc(NC(=O)c2cccc(C(F)F)c2)cc1-c1cc(N2CCOCC2)nc(N2CC(O)C2)n1", "note": "[Example 770, 3-(difluoromethyl)-N-(5-(2-(3-hydroxyazetidin-1-yl)-6-morpholinopyrimidin-4-yl)-6-methylpyridin-3-yl)benzamide]", "values": [{"measurement": "IC50", "setting": "[1]", "value": 5.3, "unit": "nM"}]}
{"smiles": "COc1cncc(NC(=O)c2ccc(C)c(-c3cc(N4CCOCC4)c(=O)n(C)c3)c2)c1", "note": "[Example 442, N-(5-methoxypyridin-3-yl)-4-methyl-3-(1-methyl-5-morpholino-6-oxo-1,6-dihydropyridin-3-yl)benzamide]", "values": [{"measurement": "IC50", "setting": "[1]", "value": 68.7, "unit": "nM"}]}
{"smiles": "CCOc1nnc(-c2cc(NC(=O)c3ccnc(C(C)(C)C#N)c3)cnc2C)cc1N1CCOCC1", "note": "[Example 613, 2-(2-cyanopropan-2-yl)-N-(5-(6-ethoxy-5-morpholinopyridazin-3-yl)-6-methylpyridin-3-yl)isonicotinamide]", "values": [{"measurement": "IC50", "setting": "[1]", "value": 10, "unit": "nM"}]}
{"smiles": "Cc1ccc(NC(=O)c2cccc(C(F)(F)F)c2)cc1-c1cc(NC(=O)C(C)O)nc(N2CCOCC2)c1", "note": "(stereo not drawn) [Example 1066, N-(3-(2-(2-hydroxypropanamido)-6-morpholinopyridin-4-yl)-4-methylphenyl)-3-(trifluoromethyl)benzamide]", "values": [{"measurement": "IC50", "setting": "[2]", "value": 0.58, "unit": "nM"}]}
{"smiles": "Cc1ccc(NC(=O)c2ccnc(C(C)(C)F)c2)cc1-c1cc(N2CCOCC2)c(=O)n(C)n1", "note": "[Example 654, 2-(2-fluoropropan-2-yl)-N-(4-methyl-3-(1-methyl-5-morpholino-6-oxo-1,6-dihydropyridazin-3-yl)phenyl)isonicotinamide]", "values": [{"measurement": "IC50", "setting": "[1]", "value": 1.7, "unit": "nM"}]}
{"smiles": "CCNc1nc(-c2cc(NC(=O)c3ccnc(C4(C#N)CC4)c3)ccc2C)cc(N2CCOCC2)n1", "note": "[Example 708, 2-(1-cyanocyclopropyl)-N-(3-(2-(ethylamino)-6-morpholinopyrimidin-4-yl)-4-methylphenyl)isonicotinamide]", "values": [{"measurement": "IC50", "setting": "[1]", "value": 0.5, "unit": "nM"}]}
{"smiles": "Cc1ccc(NC(=O)c2cccc(-c3nnco3)c2)cc1-c1cc(N2CCOCC2)c(=O)n(C)n1", "note": "[Example 639, N-(4-methyl-3-(1-methyl-5-morpholino-6-oxo-1,6-dihydropyridazin-3-yl)phenyl)-3-(1,3,4-oxadiazol-2-yl)benzamide]", "values": [{"measurement": "IC50", "setting": "[1]", "value": 7.3, "unit": "nM"}]}
{"smiles": "CCC(F)(F)c1cc(C(=O)Nc2ccc(C)c(-c3cc(N4CCOCC4)n(C)c(=O)c3)c2)ccn1", "note": "[Example 475, 2-(1,1-difluoropropyl)-N-(4-methyl-3-(1-methyl-6-morpholino-2-oxo-1,2-dihydropyridin-4-yl)phenyl)isonicotinamide]", "values": [{"measurement": "IC50", "setting": "[1]", "value": 0.8, "unit": "nM"}]}
{"smiles": "Cc1ccc(NC(=O)c2cccc(C(F)(F)F)c2)cc1-c1cc(N2CCOCC2)nc(N2C(=O)OC[C@@H]2C)n1", "note": "[Example 783, (S)—N-(4-methyl-3-(2-(4-methyl-2-oxooxazolidin-3-yl)-6-morpholinopyrimidin-4-yl)phenyl)-3-(trifluoromethyl)benzamide]", "values": [{"measurement": "IC50", "setting": "[1]", "value": 6.3, "unit": "nM"}]}
{"smiles": "Cc1ccc(NC(=O)c2ccnc(C(C)(F)F)c2)cc1-c1cc(N2C3CCC2COC3)c(=O)n(C)n1", "note": "[Example 670, N-(3-(5-(3-oxa-8-azabicyclo[3.2.1]octan-8-yl)-1-methyl-6-oxo-1,6-dihydropyridazin-3-yl)-4-methylphenyl)-2-(1,1-difluoroethyl)isonicotinamide]", "values": [{"measurement": "IC50", "setting": "[1]", "value": 2.8, "unit": "nM"}]}
{"smiles": "Cc1ccc(NC(=O)c2cnnc(C(F)(F)F)c2)cc1-c1cc(N2CCOCC2)c(=O)n(C)n1", "note": "[Example 647, N-(4-methyl-3-(1-methyl-5-morpholino-6-oxo-1,6-dihydropyridazin-3-yl)phenyl)-6-(trifluoromethyl)pyridazine-4-carboxamide]", "values": [{"measurement": "IC50", "setting": "[1]", "value": 5.3, "unit": "nM"}]}
{"smiles": "CCOc1ncc(-c2cc(C(=O)Nc3cccc(S(C)(=O)=O)c3)ccc2C)cc1N1CCOCC1", "note": "[Example 238, 3-(6-ethoxy-5-morpholinopyridin-3-yl)-4-methyl-N-(3-(methylsulfonyl)phenyl)benzamide]", "values": [{"measurement": "IC50", "setting": "[3]", "value": 0.9, "unit": "nM"}]}
{"smiles": "Cc1ncc(NC(=O)c2cc(C3CC3)nn2C)cc1-c1cc(N2CCOCC2)c(=O)n(C)c1", "note": "[Example 377, 3-cyclopropyl-N-(1′,2-dimethyl-5′-morpholino-6′-oxo-1′,6′-dihydro-[3,3′-bipyridin]-5-yl)-1-methyl-1H-pyrazole-5-carboxamide]", "values": [{"measurement": "IC50", "setting": "[3]", "value": 200, "unit": "nM"}]}
{"smiles": "Cc1ccc(NC(=O)c2cnnc(C3CC3)c2)cc1-c1cc(OCCO)nc(N2CCOCC2)c1", "note": "[Example 1162, 6-cyclopropyl-N-(3-(2-(2-hydroxyethoxy)-6-morpholinopyridin-4-yl)-4-methylphenyl)pyridazine-4-carboxamide]", "values": [{"measurement": "IC50", "setting": "[2]", "value": 0.38, "unit": "nM"}]}
{"smiles": "Cc1ccc(C(=O)Nc2ccccn2)cc1-c1cc(N2CCOCC2)c(=O)n(C)c1", "note": "[Example 432, 4-methyl-3-(1-methyl-5-morpholino-6-oxo-1,6-dihydropyridin-3-yl)-N-(pyridin-2-yl)benzamide]", "values": [{"measurement": "IC50", "setting": "[3]", "value": 99, "unit": "nM"}]}
